# Test results published in ChEMBL document CHEMBL3044736, “Synthesis, characterization, solvatochromic properties, and antimicrobial evaluation of 5-acetyl-2-thioxo-dihydro-pyrimidine-4,6-dione-based chalcones” (2013).
# What was measured:
# Format in all cases: functional
# Penicillium [1] = assay: Antimicrobial activity against Penicillium wild strain assessed as diameter of growth inhibition zone at 250 ug/ml after 48-96 hr by agar cup diffusion method; details: read-out: DIZ
# Penicillium [2] = assay: Antimicrobial activity against Penicillium wild strain assessed as diameter of growth inhibition zone at 100 ug/ml after 48-96 hr by agar cup diffusion method; details: read-out: DIZ
# Trichophyton rubrum [3] = assay: Antimicrobial activity against Trichophyton rubrum MTCC 296 assessed as diameter of growth inhibition zone at 100 ug/ml after 48-96 hr by agar cup diffusion method; details: read-out: DIZ
# Aspergillus clavatus [4] = assay: Antimicrobial activity against Aspergillus clavatus MTCC 1323 assessed as diameter of growth inhibition zone at 100 ug/ml after 48-96 hr by agar cup diffusion method; details: read-out: DIZ
# Candida albicans [5] = assay: Antimicrobial activity against Candida albicans MTCC 227 assessed as diameter of growth inhibition zone at 100 ug/ml after 48-96 hr by agar cup diffusion method; details: read-out: DIZ
# Penicillium [6] = assay: Antimicrobial activity against Penicillium wild strain assessed as diameter of growth inhibition zone at 50 ug/ml after 48-96 hr by agar cup diffusion method; details: read-out: DIZ
# Trichophyton rubrum [7] = assay: Antimicrobial activity against Trichophyton rubrum MTCC 296 assessed as diameter of growth inhibition zone at 50 ug/ml after 48-96 hr by agar cup diffusion method; details: read-out: DIZ
# Aspergillus clavatus [8] = assay: Antimicrobial activity against Aspergillus clavatus MTCC 1323 assessed as diameter of growth inhibition zone at 50 ug/ml after 48-96 hr by agar cup diffusion method; details: read-out: DIZ
# Candida albicans [9] = assay: Antimicrobial activity against Candida albicans MTCC 227 assessed as diameter of growth inhibition zone at 50 ug/ml after 48-96 hr by agar cup diffusion method; details: read-out: DIZ
# Penicillium [10] = assay: Antimicrobial activity against Penicillium wild strain assessed as diameter of growth inhibition zone at 25 ug/ml after 48-96 hr by agar cup diffusion method; details: read-out: DIZ
# Trichophyton rubrum [11] = assay: Antimicrobial activity against Trichophyton rubrum MTCC 296 assessed as diameter of growth inhibition zone at 25 ug/ml after 48-96 hr by agar cup diffusion method; details: read-out: DIZ
# Aspergillus clavatus [12] = assay: Antimicrobial activity against Aspergillus clavatus MTCC 1323 assessed as diameter of growth inhibition zone at 25 ug/ml after 48-96 hr by agar cup diffusion method; details: read-out: DIZ
# Candida albicans [13] = assay: Antimicrobial activity against Candida albicans MTCC 227 assessed as diameter of growth inhibition zone at 25 ug/ml after 48-96 hr by agar cup diffusion method; details: read-out: DIZ
# Penicillium [14] = assay: Antimicrobial activity against Penicillium wild strain by agar cup diffusion method
# Aspergillus clavatus [15] = assay: Antimicrobial activity against Aspergillus clavatus MTCC 1323 by agar cup diffusion method
# Pseudomonas aeruginosa [16] = assay: Antimicrobial activity against Pseudomonas aeruginosa MTCC 1688 assessed as diameter of growth inhibition zone at 25 ug/ml after 18-24 hr by agar cup diffusion method; details: read-out: DIZ
# Escherichia coli [17] = assay: Antimicrobial activity against Escherichia coli MTCC 443 assessed as diameter of growth inhibition zone at 25 ug/ml after 18-24 hr by agar cup diffusion method; details: read-out: DIZ
# Staphylococcus aureus [18] = assay: Antimicrobial activity against Staphylococcus aureus MTCC 96 assessed as diameter of growth inhibition zone at 25 ug/ml after 18-24 hr by agar cup diffusion method; details: read-out: DIZ
# Streptococcus pyogenes [19] = assay: Antimicrobial activity against Streptococcus pyogenes MTCC 442 assessed as diameter of growth inhibition zone at 25 ug/ml after 18-24 hr by agar cup diffusion method; details: read-out: DIZ
# Klebsiella pneumoniae [20] = assay: Antimicrobial activity against Klebsiella pneumoniae MTCC 109 by agar cup diffusion method
# Escherichia coli [21] = assay: Antimicrobial activity against Escherichia coli MTCC 443 by agar cup diffusion method
# Pseudomonas aeruginosa [22] = assay: Antimicrobial activity against Pseudomonas aeruginosa MTCC 1688 by agar cup diffusion method
# Staphylococcus aureus [23] = assay: Antimicrobial activity against Staphylococcus aureus MTCC 96 by agar cup diffusion method
# Streptococcus pyogenes [24] = assay: Antimicrobial activity against Streptococcus pyogenes MTCC 442 by agar cup diffusion method
# Trichophyton rubrum [25] = assay: Antimicrobial activity against Trichophyton rubrum MTCC 296 by agar cup diffusion method
# Candida albicans [26] = assay: Antimicrobial activity against Candida albicans MTCC 227 by agar cup diffusion method
# Klebsiella pneumoniae [27] = assay: Antimicrobial activity against Klebsiella pneumoniae MTCC 109 assessed as diameter of growth inhibition zone at 250 ug/ml after 18-24 hr by agar cup diffusion method; details: read-out: DIZ
# Pseudomonas aeruginosa [28] = assay: Antimicrobial activity against Pseudomonas aeruginosa MTCC 1688 assessed as diameter of growth inhibition zone at 250 ug/ml after 18-24 hr by agar cup diffusion method; details: read-out: DIZ
# Escherichia coli [29] = assay: Antimicrobial activity against Escherichia coli MTCC 443 assessed as diameter of growth inhibition zone at 250 ug/ml after 18-24 hr by agar cup diffusion method; details: read-out: DIZ
# Staphylococcus aureus [30] = assay: Antimicrobial activity against Staphylococcus aureus MTCC 96 assessed as diameter of growth inhibition zone at 250 ug/ml after 18-24 hr by agar cup diffusion method; details: read-out: DIZ
# Streptococcus pyogenes [31] = assay: Antimicrobial activity against Streptococcus pyogenes MTCC 442 assessed as diameter of growth inhibition zone at 250 ug/ml after 18-24 hr by agar cup diffusion method; details: read-out: DIZ
# Klebsiella pneumoniae [32] = assay: Antimicrobial activity against Klebsiella pneumoniae MTCC 109 assessed as diameter of growth inhibition zone at 100 ug/ml after 18-24 hr by agar cup diffusion method; details: read-out: DIZ
# Pseudomonas aeruginosa [33] = assay: Antimicrobial activity against Pseudomonas aeruginosa MTCC 1688 assessed as diameter of growth inhibition zone at 100 ug/ml after 18-24 hr by agar cup diffusion method; details: read-out: DIZ
# Escherichia coli [34] = assay: Antimicrobial activity against Escherichia coli MTCC 443 assessed as diameter of growth inhibition zone at 100 ug/ml after 18-24 hr by agar cup diffusion method; details: read-out: DIZ
# Staphylococcus aureus [35] = assay: Antimicrobial activity against Staphylococcus aureus MTCC 96 assessed as diameter of growth inhibition zone at 100 ug/ml after 18-24 hr by agar cup diffusion method; details: read-out: DIZ
# Streptococcus pyogenes [36] = assay: Antimicrobial activity against Streptococcus pyogenes MTCC 442 assessed as diameter of growth inhibition zone at 100 ug/ml after 18-24 hr by agar cup diffusion method; details: read-out: DIZ
# Klebsiella pneumoniae [37] = assay: Antimicrobial activity against Klebsiella pneumoniae MTCC 109 assessed as diameter of growth inhibition zone at 50 ug/ml after 18-24 hr by agar cup diffusion method; details: read-out: DIZ
# Pseudomonas aeruginosa [38] = assay: Antimicrobial activity against Pseudomonas aeruginosa MTCC 1688 assessed as diameter of growth inhibition zone at 50 ug/ml after 18-24 hr by agar cup diffusion method; details: read-out: DIZ
# Escherichia coli [39] = assay: Antimicrobial activity against Escherichia coli MTCC 443 assessed as diameter of growth inhibition zone at 50 ug/ml after 18-24 hr by agar cup diffusion method; details: read-out: DIZ
# Staphylococcus aureus [40] = assay: Antimicrobial activity against Staphylococcus aureus MTCC 96 assessed as diameter of growth inhibition zone at 50 ug/ml after 18-24 hr by agar cup diffusion method; details: read-out: DIZ
# Streptococcus pyogenes [41] = assay: Antimicrobial activity against Streptococcus pyogenes MTCC 442 assessed as diameter of growth inhibition zone at 50 ug/ml after 18-24 hr by agar cup diffusion method; details: read-out: DIZ
# Klebsiella pneumoniae [42] = assay: Antimicrobial activity against Klebsiella pneumoniae MTCC 109 assessed as diameter of growth inhibition zone at 25 ug/ml after 18-24 hr by agar cup diffusion method; details: read-out: DIZ
# Trichophyton rubrum [43] = assay: Antimicrobial activity against Trichophyton rubrum MTCC 296 assessed as diameter of growth inhibition zone at 250 ug/ml after 48-96 hr by agar cup diffusion method; details: read-out: DIZ
# Aspergillus clavatus [44] = assay: Antimicrobial activity against Aspergillus clavatus MTCC 1323 assessed as diameter of growth inhibition zone at 250 ug/ml after 48-96 hr by agar cup diffusion method; details: read-out: DIZ
# Candida albicans [45] = assay: Antimicrobial activity against Candida albicans MTCC 227 assessed as diameter of growth inhibition zone at 250 ug/ml after 48-96 hr by agar cup diffusion method; details: read-out: DIZ
structure (smiles),measurement,setting,value
O=C(/C=C/c1ccc(Cl)cc1)C1C(=O)NC(=S)NC1=O,zone of inhibition at 250 µg/mL,Penicillium [1],25 mm
same,zone of inhibition at 100 µg/mL,Penicillium [2],23 mm
same,zone of inhibition at 100 µg/mL,Trichophyton rubrum [3],21 mm
same,zone of inhibition at 100 µg/mL,Aspergillus clavatus [4],22 mm
same,zone of inhibition at 100 µg/mL,Candida albicans [5],22 mm
same,zone of inhibition at 50 µg/mL,Penicillium [6],22 mm
same,zone of inhibition at 50 µg/mL,Trichophyton rubrum [7],20 mm
same,zone of inhibition at 50 µg/mL,Aspergillus clavatus [8],20 mm
same,zone of inhibition at 50 µg/mL,Candida albicans [9],21 mm
same,zone of inhibition at 25 µg/mL,Penicillium [10],19 mm
same,zone of inhibition at 25 µg/mL,Trichophyton rubrum [11],18 mm
same,zone of inhibition at 25 µg/mL,Aspergillus clavatus [12],18 mm
same,zone of inhibition at 25 µg/mL,Candida albicans [13],20 mm
same,MFC,Penicillium [14],> 1000 µg/mL
same,MIC,Penicillium [14],> 1000 µg/mL
same,MFC,Aspergillus clavatus [15],500 µg/mL
same,MIC,Aspergillus clavatus [15],500 µg/mL
same,zone of inhibition at 25 µg/mL,Pseudomonas aeruginosa [16],11 mm
same,zone of inhibition at 25 µg/mL,Escherichia coli [17],11 mm
same,zone of inhibition at 25 µg/mL,Staphylococcus aureus [18],11 mm
same,zone of inhibition at 25 µg/mL,Streptococcus pyogenes [19],11 mm
same,MBC,Klebsiella pneumoniae [20],125 µg/mL
same,MIC,Klebsiella pneumoniae [20],100 µg/mL
same,MBC,Escherichia coli [21],125 µg/mL
same,MIC,Escherichia coli [21],125 µg/mL
same,MBC,Pseudomonas aeruginosa [22],250 µg/mL
same,MIC,Pseudomonas aeruginosa [22],200 µg/mL
same,MBC,Staphylococcus aureus [23],100 µg/mL
same,MIC,Staphylococcus aureus [23],100 µg/mL
same,MBC,Streptococcus pyogenes [24],125 µg/mL
same,MIC,Streptococcus pyogenes [24],100 µg/mL
same,MFC,Trichophyton rubrum [25],> 1000 µg/mL
same,MIC,Trichophyton rubrum [25],> 1000 µg/mL
same,MFC,Candida albicans [26],500 µg/mL
same,MIC,Candida albicans [26],500 µg/mL
same,zone of inhibition at 250 µg/mL,Klebsiella pneumoniae [27],20 mm
same,zone of inhibition at 250 µg/mL,Pseudomonas aeruginosa [28],15 mm
same,zone of inhibition at 250 µg/mL,Escherichia coli [29],19 mm
same,zone of inhibition at 250 µg/mL,Staphylococcus aureus [30],15 mm
same,zone of inhibition at 250 µg/mL,Streptococcus pyogenes [31],19 mm
same,zone of inhibition at 100 µg/mL,Klebsiella pneumoniae [32],17 mm
same,zone of inhibition at 100 µg/mL,Pseudomonas aeruginosa [33],13 mm
same,zone of inhibition at 100 µg/mL,Escherichia coli [34],17 mm
same,zone of inhibition at 100 µg/mL,Staphylococcus aureus [35],13 mm
same,zone of inhibition at 100 µg/mL,Streptococcus pyogenes [36],17 mm
same,zone of inhibition at 50 µg/mL,Klebsiella pneumoniae [37],15 mm
same,zone of inhibition at 50 µg/mL,Pseudomonas aeruginosa [38],12 mm
same,zone of inhibition at 50 µg/mL,Escherichia coli [39],14 mm
same,zone of inhibition at 50 µg/mL,Staphylococcus aureus [40],12 mm
same,zone of inhibition at 50 µg/mL,Streptococcus pyogenes [41],14 mm
same,zone of inhibition at 25 µg/mL,Klebsiella pneumoniae [42],13 mm
same,zone of inhibition at 250 µg/mL,Trichophyton rubrum [43],22 mm
same,zone of inhibition at 250 µg/mL,Aspergillus clavatus [44],22 mm
same,zone of inhibition at 250 µg/mL,Candida albicans [45],23 mm
